Measurements as given in PubChem BioAssay AID248 (DTP/NCI, 2004).
“And” between values parts separate entries of the source, which are not always exact repeats. Identical values can stand only once. Inconclusive results and toxic doses are left out. Rule as the data show it: active = T/C of 150% or more; inactive = T/C below 125%.

System: L1210 leukemia ip in BDF1 mice, survival T/C
Test: NCI In Vivo Anticancer Drug Screen. Data for tumor model L1210 Leukemia (intraperitoneal) in B6D2F1 (BDF1) mice
Settings: endpoint: mean survival time, higher = longer survival
Procedure, shortened: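 Value reflects the ratio of survival in compound-treated mice to survival in vehicle-treated controls, with both groups carrying the same transplanted tumor.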

[1] = dose: 50.0 mg/kg/injection, schedule: Q01DX009 (ip), vehicle: Klucel (hydroxypropylcellulose) (HPC)
[2] = dose: 100.0 mg/kg/injection, schedule: Q01DX009 (ip), vehicle: Klucel (hydroxypropylcellulose) (HPC)
[3] = dose: 100.0 mg/kg/injection, schedule: Q04DX003 (ip), vehicle: Klucel (hydroxypropylcellulose) (HPC)
[4] = dose: 200.0 mg/kg/injection, schedule: Q01DX009 (ip), vehicle: Klucel (hydroxypropylcellulose) (HPC)
[5] = dose: 200.0 mg/kg/injection, schedule: Q04DX003 (ip), vehicle: Klucel (hydroxypropylcellulose) (HPC)
[6] = dose: 400.0 mg/kg/injection, schedule: Q01DX009 (ip), vehicle: Klucel (hydroxypropylcellulose) (HPC)
[7] = dose: 400.0 mg/kg/injection, schedule: Q04DX003 (ip), vehicle: Klucel (hydroxypropylcellulose) (HPC)
[8] = dose: 100.0 mg/kg/injection, schedule: Q01DX001 (ip), vehicle: saline
[9] = dose: 200.0 mg/kg/injection, schedule: Q01DX001 (ip), vehicle: saline
[10] = dose: 400.0 mg/kg/injection, schedule: Q01DX001 (ip), vehicle: saline
[11] = dose: 100.0 mg/kg/injection, schedule: Q01DX009 (ip), vehicle: saline with Tween-80
[12] = dose: 200.0 mg/kg/injection, schedule: Q01DX009 (ip), vehicle: saline with Tween-80
[13] = dose: 400.0 mg/kg/injection, schedule: Q01DX009 (ip), vehicle: saline with Tween-80
[14] = dose: 100.0 mg/kg/injection, schedule: Q04DX002 (ip), vehicle: Klucel (hydroxypropylcellulose) (HPC)
[15] = dose: 200.0 mg/kg/injection, schedule: Q04DX002 (ip), vehicle: Klucel (hydroxypropylcellulose) (HPC)
[16] = dose: 400.0 mg/kg/injection, schedule: Q04DX002 (ip), vehicle: Klucel (hydroxypropylcellulose) (HPC)
[17] = dose: 100.0 mg/kg/injection, schedule: Q04DX003 (ip), vehicle: saline
[18] = dose: 200.0 mg/kg/injection, schedule: Q04DX003 (ip), vehicle: saline
[19] = dose: 400.0 mg/kg/injection, schedule: Q04DX003 (ip), vehicle: saline
[20] = dose: 25.0 mg/kg/injection, schedule: Q04DX002 (ip), vehicle: Klucel (hydroxypropylcellulose) (HPC)
[21] = dose: 50.0 mg/kg/injection, schedule: Q04DX002 (ip), vehicle: Klucel (hydroxypropylcellulose) (HPC)
[22] = dose: 100.0 mg/kg/injection, schedule: Q01DX001 (ip), vehicle: saline with Tween-80
[23] = dose: 100.0 mg/kg/injection, schedule: Q04DX003 (ip), vehicle: saline with Tween-80

Measured: T/C

CN(Nc1c([N+](=O)[O-])cc([N+](=O)[O-])cc1[N+](=O)[O-])c1cccc2ccccc12
inactive: [1] 106 % of control | [2] 97 % of control | [3] 98 % of control | [4] 97 % of control | [5] 98 % of control | [6] 102 % of control | [7] 90 % of control

COC1C(N)C(O)OC(CO)C1O (centres undefined)
inactive: [8] 99 % of control | [9] 103 % of control | [10] 94 % of control

COc1ccc(C2C(=O)c3ccccc3C2=O)cc1OC
inactive: dose: 100.0 mg/kg/injection, schedule: Q01DX001 (ip), vehicle: Klucel (hydroxypropylcellulose) (HPC) 94 % of control | dose: 200.0 mg/kg/injection, schedule: Q01DX001 (ip), vehicle: Klucel (hydroxypropylcellulose) (HPC) 88 % of control

COC(C)(OC)C(N)=O
inactive: [11] 96 % of control | [3] 94 % of control | [12] 111 % of control | [5] 96 % of control | [13] 98 % of control | [7] 92 % of control

Cc1ccc(Oc2ccc3c(c2)CN(C)CC3)cc1
inactive: [14] 97 % of control | [15] 102 % of control | [16] 91 % of control

O=C(O)c1ccccc1/C=C1/Nc2ccccc2C1=O
inactive: dose: 10.0 mg/kg/injection, schedule: Q01DX001 (ip), vehicle: acetone 102 % of control | dose: 20.0 mg/kg/injection, schedule: Q01DX001 (ip), vehicle: acetone 94 % of control

CC#CCOCC1CN(C)C(=O)O1 (centres undefined)
inactive: dose: 25.0 mg/kg/injection, schedule: Q01DX009 (ip), vehicle: saline 95 % of control | dose: 50.0 mg/kg/injection, schedule: Q01DX009 (ip), vehicle: saline 98 % of control | dose: 50.0 mg/kg/injection, schedule: Q04DX003 (ip), vehicle: saline 106 % of control | dose: 100.0 mg/kg/injection, schedule: Q01DX009 (ip), vehicle: saline 92 % of control | [17] 101 % of control | dose: 200.0 mg/kg/injection, schedule: Q01DX009 (ip), vehicle: saline 90 % of control | [18] 104 % of control | dose: 400.0 mg/kg/injection, schedule: Q01DX009 (ip), vehicle: saline 95 % of control | [19] 101 % of control

CC(=O)OCCOc1ccc(C(C)(C)C)cc1
inactive: [1] 100 % of control | [2] 86 % of control and 92 % of control | [14] 98 % of control | [4] 111 % of control | [15] 102 % of control | dose: 225.0 mg/kg/injection, schedule: Q01DX Z (ip), vehicle: carboxymethylcellulose (CMC) 95 % of control | [16] 115 % of control | dose: 450.0 mg/kg/injection, schedule: Q01DX Z (ip), vehicle: carboxymethylcellulose (CMC) 102 % of control

O=S(=O)(F)c1cc(Cl)c(S)c(Cl)c1
inactive: [2] 100 % of control

O=C(O)C1C=CCC(C(=O)O)C1 (centres undefined)
inactive: [17] 98 % of control | [18] 108 % of control | [19] 95 % of control

COc1ccc(C(=O)/C=C/c2cccc(OCc3ccccc3)c2)cc1
inactive: [20] 102 % of control | [21] 91 % of control | [14] 102 % of control | [15] 92 % of control | [16] 103 % of control

Cc1nc(N)[nH]c(=O)c1CCCNC(=O)c1ccc(C(=O)O)cc1
inactive: dose: 25.0 mg/kg/injection, schedule: Q01DX001 (ip), vehicle: saline with Tween-80 90 % of control | dose: 50.0 mg/kg/injection, schedule: Q01DX001 (ip), vehicle: saline with Tween-80 97 % of control | [22] 93 % of control

CCOC(=O)C(C(=O)OCC)C1c2ccccc2C(=NO)c2ccccc21 (centres undefined)
inactive: [1] 96 % of control | [2] 98 % of control | [3] 88 % of control | [4] 94 % of control | [5] 92 % of control

CN(C)C(=O)c1ccc[n+](CC(=O)Nc2ccc(Cl)cc2)c1
inactive: [17] 98 % of control

NC(=S)N/N=C/c1[nH]c(=O)[nH]c(=O)c1Br
inactive: [22] 93 % of control | dose: 200.0 mg/kg/injection, schedule: Q01DX001 (ip), vehicle: saline with Tween-80 97 % of control | dose: 400.0 mg/kg/injection, schedule: Q01DX001 (ip), vehicle: saline with Tween-80 103 % of control

CCOc1ccccc1/C=N/Nc1c2ccccc2nc2ccccc12
inactive: [8] 90 % of control | [9] 97 % of control | [10] 92 % of control

CCN(CC)CCOC(=O)c1cccc2[nH]ccc12
inactive: [17] 104 % of control | [18] 109 % of control

Cc1cccc(NC=O)c1
inactive: [11] 100 % of control | [23] 97 % of control | [12] 98 % of control | dose: 200.0 mg/kg/injection, schedule: Q04DX003 (ip), vehicle: saline with Tween-80 102 % of control | [13] 99 % of control

COc1ccc(C(=O)NC(=S)Nc2cccc(C)c2C)cc1
inactive: [2] 102 % of control | [3] 93 % of control | [4] 102 % of control | [5] 89 % of control | [6] 95 % of control | [7] 98 % of control

CC(=O)Nc1cccc(OCCCOc2ccc([N+](=O)[O-])cc2)c1
inactive: dose: 100.0 mg/kg/injection, schedule: Q01DX001 (ip), vehicle: carboxymethylcellulose (CMC) 95 % of control | dose: 200.0 mg/kg/injection, schedule: Q01DX001 (ip), vehicle: carboxymethylcellulose (CMC) 101 % of control | dose: 400.0 mg/kg/injection, schedule: Q01DX001 (ip), vehicle: carboxymethylcellulose (CMC) 90 % of control

Cc1cc(/C=C/c2ccccc2)nc2ccccc12
inactive: [8] 96 % of control | [9] 100 % of control | [10] 90 % of control

O=C(O)COc1ccc(Cl)cc1CC(Cl)CCl (centres undefined)
inactive: dose: 25.0 mg/kg/injection, schedule: Q01DX009 (ip), vehicle: Klucel (hydroxypropylcellulose) (HPC) 97 % of control | [1] 119 % of control | [2] 97 % of control and 100 % of control

CCC(C#N)C1=CCCCCC1 (centres undefined)
inactive: dose: 12.5 mg/kg/injection, schedule: Q04DX003 (ip), vehicle: saline with Tween-80 103 % of control | dose: 25.0 mg/kg/injection, schedule: Q01DX009 (ip), vehicle: saline with Tween-80 97 % of control | dose: 25.0 mg/kg/injection, schedule: Q04DX003 (ip), vehicle: saline with Tween-80 97 % of control and 101 % of control | dose: 50.0 mg/kg/injection, schedule: Q01DX009 (ip), vehicle: saline with Tween-80 102 % of control | dose: 50.0 mg/kg/injection, schedule: Q04DX003 (ip), vehicle: saline with Tween-80 110 % of control | [11] 107 % of control | [23] 101 % of control

CC(SS(=O)(=O)O)C(N)=NCc1ccccc1 (centres undefined)
inactive: [20] 94 % of control | [21] 108 % of control | [14] 98 % of control

CCOC(=O)NC1=C(Cl)C(=O)C(NC(=O)OCC)=C(Cl)C1=O
inactive: [3] 102 % of control | [5] 92 % of control

C=CC12COC(=O)C(=C)C1C1OC(=O)C(=C)C1C(O)C2 (centres undefined)
inactive: dose: 2.5 mg/kg/injection, schedule: Q01DX009 (ip), vehicle: saline + alcohol 102 % of control | dose: 4.0 mg/kg/injection, schedule: Q01DX009 (ip), vehicle: saline 104 % of control | dose: 4.0 mg/kg/injection, schedule: Q01DX009 (ip), vehicle: water 103 % of control | dose: 5.0 mg/kg/injection, schedule: Q01DX009 (ip), vehicle: saline + alcohol 110 % of control | dose: 6.0 mg/kg/injection, schedule: Q01DX009 (ip), vehicle: saline 113 % of control | dose: 8.0 mg/kg/injection, schedule: Q01DX009 (ip), vehicle: saline 124 % of control | dose: 8.0 mg/kg/injection, schedule: Q01DX009 (ip), vehicle: water 118 % of control | dose: 10.0 mg/kg/injection, schedule: Q01DX009 (ip), vehicle: saline 111 % of control

NC(CCS)C(=O)O (centres undefined)
inactive: dose: 100.0 mg/kg/injection, schedule: Q04DX002 (ip), vehicle: saline 107 % of control | dose: 200.0 mg/kg/injection, schedule: Q04DX002 (ip), vehicle: saline 110 % of control | dose: 400.0 mg/kg/injection, schedule: Q04DX002 (ip), vehicle: saline 96 % of control
